Measurements published in ChEMBL document CHEMBL1201862, “PubChem BioAssay data set” (2004).
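These data come from cells grown in 96-well plates and exposed to compound for 48 hours at five concentrations. GI50 is the concentration that inhibits growth by half.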 Activity calls are given as the source filed them. Rule as the data show it: active = GI50 up to about 1.1 µM and inactive = higher.

Key:
Assay in all cases: growth of human tumour cells (NCI), 48 h
RXF 393 = system: RXF 393
A549 = system: A549
SF-539 = system: SF-539
KM12 = system: KM12
NCI-H226 = system: NCI-H226
SK-MEL-2 = system: SK-MEL-2
TK-10 = system: TK-10
MCF7 = system: MCF7
HCT-15 = system: HCT-15
EKVX = system: EKVX
LOX IMVI = system: LOX IMVI
K562 = system: K562
ACHN = system: ACHN
M14 = system: M14
Malme-3M = system: Malme-3M
SW-620 = system: SW-620
CAKI-1 = system: CAKI-1
BT-549 = system: BT-549
MDA-MB-435 = system: MDA-MB-435
PC-3 = system: PC-3
A498 = system: A498
MOLT-4 = system: MOLT-4
U-251 = system: U-251
OVCAR-5 = system: OVCAR-5
NCI-H522 = system: NCI-H522
CCRF-CEM = system: CCRF-CEM
SK-MEL-28 = system: SK-MEL-28
SNB-19 = system: SNB-19
HOP-62 = system: HOP-62
UACC-62 = system: UACC-62
HCT-116 = system: HCT-116
NCI/ADR-RES = system: NCI/ADR-RES
MDA-N = system: MDA-N
SK-OV-3 = system: SK-OV-3
SF-268 = system: SF-268
OVCAR-3 = system: OVCAR-3
NCI-H23 = system: NCI-H23
RPMI-8226 = system: RPMI-8226
HOP-92 = system: HOP-92
T47D = system: T47D
HT-29 = system: HT-29
NCI-H460 = system: NCI-H460
IGROV-1 = system: IGROV-1
MDA-MB-231 = system: MDA-MB-231
SNB-75 = system: SNB-75
786-0 = system: 786-0
SN12C = system: SN12C
OVCAR-8 = system: OVCAR-8
Hs-578T = system: Hs-578T
SF-295 = system: SF-295
UACC-257 = system: UACC-257
SK-MEL-5 = system: SK-MEL-5
OVCAR-4 = system: OVCAR-4
DU-145 = system: DU-145
HL-60 = system: HL-60
COLO 205 = system: COLO 205
UO-31 = system: UO-31
HCC 2998 = system: HCC 2998

SMILES: COC(=O)C1=C(C)NC2(C)OC(C)(O)C(C(C)=O)C12C(C)=O (stereo not given)
- GI50 (RXF 393): 57.7 µM (inactive)
- GI50 (A549): > 100 µM (inactive)
- GI50 (SF-539): 24.3 µM (inactive)
- GI50 (KM12): > 100 µM (inactive)
- GI50 (NCI-H226): 16.5 µM (inactive)
- GI50 (SK-MEL-2): 21.4 µM (inactive)
- GI50 (TK-10): > 100 µM (inactive)
- GI50 (MCF7): > 100 µM (inactive)
- GI50 (HCT-15): > 100 µM
- GI50 (EKVX): > 100 µM (inactive)
- GI50 (LOX IMVI): 89.5 µM (inactive)
- GI50 (K562): > 100 µM (inactive)
- GI50 (ACHN): 70.6 µM (inactive)
- GI50 (M14): 60.5 µM (inactive)
- GI50 (Malme-3M): 23.4 µM (inactive)
- GI50 (SW-620): > 100 µM (inactive)
- GI50 (CAKI-1): > 100 µM (inactive)
- GI50 (BT-549): 66.5 µM (inactive)
- GI50 (MDA-MB-435): > 100 µM (inactive)
- GI50 (PC-3): 13.9 µM (inactive)
- GI50 (A498): 60.5 µM (inactive)
- GI50 (MOLT-4): > 100 µM (inactive)
- GI50 (U-251): 43.7 µM (inactive)
- GI50 (OVCAR-5): 31.5 µM (inactive)
- GI50 (NCI-H522): > 100 µM (inactive)
- GI50 (CCRF-CEM): 31.6 µM (inactive)
- GI50 (SK-MEL-28): 38.5 µM (inactive)
- GI50 (SNB-19): > 100 µM (inactive)
- GI50 (HOP-62): > 100 µM (inactive)
- GI50 (UACC-62): > 100 µM (inactive)
- GI50 (HCT-116): > 100 µM (inactive)
- GI50 (NCI/ADR-RES): > 100 µM (inactive)
- GI50 (MDA-N): > 100 µM (inactive)
- GI50 (SK-OV-3): 28.5 µM (inactive)
- GI50 (SF-268): 28.1 µM (inactive)
- GI50 (OVCAR-3): > 100 µM (inactive)
- GI50 (NCI-H23): > 100 µM (inactive)
- GI50 (RPMI-8226): 61.1 µM (inactive)
- GI50 (HOP-92): 33.2 µM (inactive)
- GI50 (T47D): > 100 µM (inactive)
- GI50 (HT-29): 81.3 µM (inactive)
- GI50 (NCI-H460): > 100 µM (inactive)
- GI50 (IGROV-1): > 100 µM (inactive)
- GI50 (MDA-MB-231): 20.7 µM (inactive)
- GI50 (SNB-75): 71.8 µM (inactive)
- GI50 (786-0): > 100 µM (inactive)
- GI50 (SN12C): 47.6 µM (inactive)
- GI50 (OVCAR-8): > 100 µM (inactive)
- GI50 (Hs-578T): 25.4 µM (inactive)
- GI50 (SF-295): 32.1 µM (inactive)
- GI50 (UACC-257): > 100 µM (inactive)
- GI50 (SK-MEL-5): > 100 µM (inactive)
- GI50 (OVCAR-4): > 100 µM (inactive)
- GI50 (DU-145): > 100 µM (inactive)
- GI50 (HL-60): > 100 µM (inactive)
- GI50 (COLO 205): 46.8 µM (inactive)

SMILES: c1ccc([P+](c2ccccc2)(c2ccccc2)C2c3ccccc3-c3ccccc32)cc1
- GI50 (RXF 393): 1.86 µM (inactive)
- GI50 (A549): 2.88 µM (inactive)
- GI50 (SF-539): 2.75 µM (inactive)
- GI50 (NCI-H226): 1.95 µM (inactive)
- GI50 (SK-MEL-2): 1.71 µM (inactive)
- GI50 (TK-10): 2.53 µM (inactive)
- GI50 (MCF7): 2.25 µM (inactive)
- GI50 (HCT-15): 3.01 µM
- GI50 (LOX IMVI): 1.32 µM (inactive)
- GI50 (K562): 1.9 µM (inactive)
- GI50 (ACHN): 2.35 µM (inactive)
- GI50 (M14): 3.14 µM (inactive)
- GI50 (Malme-3M): 2.35 µM (inactive)
- GI50 (SW-620): 3.08 µM (inactive)
- GI50 (CAKI-1): 3.46 µM (inactive)
- GI50 (BT-549): 2.94 µM (inactive)
- GI50 (MDA-MB-435): 0.655 µM (active)
- GI50 (PC-3): 1.47 µM (inactive)
- GI50 (A498): 1.75 µM (inactive)
- GI50 (MOLT-4): 1.67 µM (inactive)
- GI50 (U-251): 1.57 µM (inactive)
- GI50 (OVCAR-5): 2.59 µM (inactive)
- GI50 (NCI-H522): 2.19 µM (inactive)
- GI50 (CCRF-CEM): 1.89 µM (inactive)
- GI50 (SK-MEL-28): 3.01 µM (inactive)
- GI50 (SNB-19): 2.79 µM (inactive)
- GI50 (HOP-62): 1.5 µM (inactive)
- GI50 (UACC-62): 1.26 µM (inactive)
- GI50 (HCT-116): 0.473 µM (active)
- GI50 (NCI/ADR-RES): 15.3 µM (inactive)
- GI50 (MDA-N): 0.895 µM (active)
- GI50 (SK-OV-3): 1.33 µM (inactive)
- GI50 (UO-31): 2.67 µM (inactive)
- GI50 (SF-268): 2.77 µM (inactive)
- GI50 (OVCAR-3): 1.87 µM (inactive)
- GI50 (NCI-H23): 1.9 µM (inactive)
- GI50 (RPMI-8226): 1.35 µM (inactive)
- GI50 (T47D): 2.71 µM (inactive)
- GI50 (HT-29): 0.74 µM (active)
- GI50 (NCI-H460): 1.83 µM (inactive)
- GI50 (IGROV-1): 1.98 µM (inactive)
- GI50 (MDA-MB-231): 2.52 µM (inactive)
- GI50 (SNB-75): 2.45 µM (inactive)
- GI50 (786-0): 3.09 µM (inactive)
- GI50 (HCC 2998): 2.6 µM (inactive)
- GI50 (SN12C): 2.36 µM (inactive)
- GI50 (OVCAR-8): 2.81 µM (inactive)
- GI50 (Hs-578T): 2.21 µM (inactive)
- GI50 (SF-295): 1.75 µM (inactive)
- GI50 (UACC-257): 2.31 µM (inactive)
- GI50 (SK-MEL-5): 1.77 µM (inactive)
- GI50 (DU-145): 2.87 µM (inactive)
- GI50 (HL-60): 1.16 µM (inactive)
- GI50 (COLO 205): 1.33 µM (inactive)
